Read-outs that look alike come from different tables or passages of the source.
Experiments:
Aurora-2 (Aurora A) = molecular target: T1, Aurora-2 (Aurora A) (Homo sapiens, UniProt O14965); assay: Aurora-2 (Aurora A) inhibition assay, coupled enzyme; assay type: biochemical
T1 sequence (O14965 1-403): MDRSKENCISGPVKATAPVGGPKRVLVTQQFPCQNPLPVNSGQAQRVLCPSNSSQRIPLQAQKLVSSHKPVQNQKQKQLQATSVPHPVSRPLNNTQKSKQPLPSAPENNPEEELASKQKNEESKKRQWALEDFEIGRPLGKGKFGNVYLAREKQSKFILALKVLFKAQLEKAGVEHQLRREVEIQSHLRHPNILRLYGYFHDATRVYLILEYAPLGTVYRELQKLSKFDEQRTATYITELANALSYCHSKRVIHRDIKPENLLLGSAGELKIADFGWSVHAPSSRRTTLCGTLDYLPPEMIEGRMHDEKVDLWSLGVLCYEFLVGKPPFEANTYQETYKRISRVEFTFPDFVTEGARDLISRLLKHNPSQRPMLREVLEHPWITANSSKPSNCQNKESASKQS
Description: Assays were carried out in a mixture of 100 mM Hepes (pH7.5), 10 mM MgCl2, 1 mM DTT, 25 mM NaCl, 2.5 mM phosphoenolpyruvate, 300 μM NADH, 30 μg/ml pyruvate kinase and 10 μg/ml lactate dehydrogenase. […] Assays were carried out at 30° C. and in the presence of 40 nM Aurora-2.
An assay stock buffer solution was prepared containing all of the reagents listed above, with the exception of Aurora-2 and the test compound of interest. […] The plate was preincubated for 10 minutes at 30° C. and the reaction initiated by addition of 10 μl of Aurora-2. Initial reaction rates were determined with a Molecular Devices SpectraMax Plus plate reader over a 10 minute time course. IC50 and Ki data were calculated from non-linear regression analysis using the Prism software package (GraphPad Prism version 3.0cx for Macintosh, GraphPad Software, San Diego Calif., USA).

Aurora-1 (Aurora B) = Aurora-1 (Aurora B) (Homo sapiens, UniProt Q96GD4); assay: Aurora-1 (Aurora B) inhibition assay (radiometric); assay type: biochemical
Description: An assay buffer solution was prepared which consisted of 25 mM HEPES (pH 7.5), 10 mM MgCl2, 0.1% BSA and 10% glycerol. […] To 22 μL of the Aurora-B solution, in a 96-well plate, was added 2 μl of a compound stock solution in DMSO and the mixture allowed to equilibrate for 10 minutes at 25° C. The enzyme reaction was initiated by the addition of 16 μl stock [γ-^33P]-ATP solution (˜20 nCi/μL) prepared in assay buffer, to a final assay concentration of 800 μM. The reaction was stopped after 3 hours by the addition of 16 μL 500 mM phosphoric acid and the levels of ^33P incorporation into the peptide substrate were determined by the following method.
A phosphocellulose 96-well plate (Millipore, Cat no. MAPHNOB50) was pre-treated with 100 μL of a 100 mM phosphoric acid prior to the addition of the enzyme reaction mixture (40 μL). The solution was left to soak on to the phosphocellulose membrane for 30 minutes and the plate subsequently washed four times with 200 μL of a 100 mM phosphoric acid. […] Levels of non-enzyme catalyzed background radioactivity were determined by adding 16 μL of the 500 mM phosphoric acid to control wells, containing all assay components (which acts to denature the enzyme), prior to the addition of the [γ-^33P]-ATP solution. Levels of enzyme catalyzed ^33P incorporation were calculated by subtracting mean background counts from those measured at each inhibitor concentration. […] Ki values were calculated from initial rate data by non-linear regression using the Prism software package (Prism 3.0, Graphpad Software, San Diego, Calif.).

[1] = Microsomal stability assay; assay type: in vitro ADME; settings: 5 μM compound, 1 mg/mL liver microsome protein, 37° C., species not given
Description: Microsomal stability was monitored by generation of depletion-time profiles in microsomes from a range of species (male CD-1 mouse, male Sprague-Dawley rat, male Beagle dog, male Cynomolgus monkey and pooled mixed gender human). Compound spiking solutions were made up by diluting down the compound stock solution in DMSO (typically 10 mM) to give a solution in acetonitrile (0.5 mM). […].
The reaction was initiated by the addition (250 μL) of the pre-incubated RGS to the pre-incubated microsome/VRT/PB mixture (pre-incubation in both instances was for 10 minutes at 37° C.). Samples were incubated within Eppendorf vials (1.5 ml) on a heater shaker (DPC Micromix 5 (settings; form 20, amplitude 4) modified to be heated, to 37° C., by two plate heaters fixed to the deck and controlled by a Packard Manual Heater) attached to a Multiprobe II HT Ex automated liquid handler. The liquid handler was programmed (WinPREP software) to sample the microsomal incubation mixture after 0, 2, 10, 30 and 60 minutes of incubation and transfer an aliquot (100 μL) to a stop block (96-well block) containing 100 μL of chilled methanol. The % organic in the stop mixture was optimized for analysis by addition of appropriate volumes of aqueous/organic (typically 100 μl of 50:50 methanol:water).
Prior to analysis the stop block was placed on a shaker (DPC Micromix 5; 10 min, form 20, amplitude 5) to precipitate out proteins. The block was then centrifuged (Jouan GR412; 2000 rpm, 15 min, 4° C.). A sample aliquot (200 μL) was then transferred to an analysis block and the block was centrifuged again (Jouan GR412; 2000 rpm, 5 min, 4° C.) prior to being sent for analysis. Depletion profiles were determined by monitoring the disappearance of VRT by liquid chromatography-tandem mass spectrometry (LC-MS/MS). Samples were injected (20 μL; Agilent 1100 liquid chromatographic system equipped with autosampler) onto an analytical column. Mobile phase consisted of Water+0.05% (v/v) formic acid (A) and methanol+0.05% (v/v) formic acid (B).
Running a gradient method optimized for the compound of interest carried out the compound elution from analytical column. The total run time was 6 minutes with a flow rate of 0.35 mL/min. The entire column effluent entered the electrospray ionization source (positive mode) of a Micromass Quattro LC tandem mass spectrometer between 0.5 and 5.9 min of the run. The mass spectrometry was optimized for the compound of interest. All incubations were conducted in duplicate and results were expressed as % parent remaining at either 30 minutes or 60 minutes relative to 0 minutes sample.

JAK-2 = JAK-2 (Homo sapiens, UniProt O60674); assay: JAK2 inhibition assay; assay type: biochemical; settings: 12 μM ATP, 15 μM poly(Glu)4Tyr
FLT-3 = molecular target: T2, FLT-3 (Homo sapiens, UniProt P36888); assay: FLT-3 inhibition assay, radiometric filter-binding; assay type: biochemical
T2 sequence (P36888 27-993): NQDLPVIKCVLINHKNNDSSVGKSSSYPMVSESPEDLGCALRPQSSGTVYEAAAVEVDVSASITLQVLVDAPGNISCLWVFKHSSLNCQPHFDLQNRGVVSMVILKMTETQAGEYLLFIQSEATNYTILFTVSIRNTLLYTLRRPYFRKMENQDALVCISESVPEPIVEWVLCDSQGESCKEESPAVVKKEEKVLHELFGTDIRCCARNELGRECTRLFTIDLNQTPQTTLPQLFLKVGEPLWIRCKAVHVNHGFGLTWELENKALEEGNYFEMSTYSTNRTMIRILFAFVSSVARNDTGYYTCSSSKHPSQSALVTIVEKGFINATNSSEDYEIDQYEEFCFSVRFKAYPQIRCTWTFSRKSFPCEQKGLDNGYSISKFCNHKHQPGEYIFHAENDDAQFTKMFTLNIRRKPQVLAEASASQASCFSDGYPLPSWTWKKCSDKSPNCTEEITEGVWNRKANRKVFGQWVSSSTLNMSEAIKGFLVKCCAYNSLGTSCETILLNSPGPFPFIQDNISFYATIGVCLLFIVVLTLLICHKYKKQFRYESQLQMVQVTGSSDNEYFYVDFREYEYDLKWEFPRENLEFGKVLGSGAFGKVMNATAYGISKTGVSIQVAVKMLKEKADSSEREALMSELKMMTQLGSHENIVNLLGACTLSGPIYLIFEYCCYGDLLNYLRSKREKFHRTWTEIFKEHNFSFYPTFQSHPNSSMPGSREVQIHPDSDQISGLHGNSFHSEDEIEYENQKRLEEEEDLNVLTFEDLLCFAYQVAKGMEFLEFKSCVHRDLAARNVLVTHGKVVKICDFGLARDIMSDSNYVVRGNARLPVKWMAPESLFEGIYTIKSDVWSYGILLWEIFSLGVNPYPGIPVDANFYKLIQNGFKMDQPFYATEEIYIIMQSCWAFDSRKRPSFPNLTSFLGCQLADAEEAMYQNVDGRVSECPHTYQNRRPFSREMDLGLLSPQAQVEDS
Description: This assay monitors the 33P incorporation into a substrate poly(Glu, Tyr) 4:1 (pE4Y). […] Final substrate concentrations in the assay were 90 μM ATP and 0.5 mg/ml pE4Y (both from Sigma Chemicals, St Louis, Mo.). […] Reactions were carried out at room temperature.
Two assay solutions were prepared. Solution 1 contains 100 mM HEPES (pH 7.5), 10 mM MgCl2, 25 mM NaCl, 1 mg/ml pE4Y and […] (containing 0.3 mCi of [γ-33^P]ATP for each reaction). Solution 2 contains 100 mM HEPES (pH 7.5), 10 mM MgCl2, 25 mM NaCl, 2 mM DTT, 0.02% BSA and 3 nM FLT-3. The assay was run on a 96 well plate by mixing 50 μl each of Solution 1 and […] of the compounds of the present invention. The reaction was initiated with Solution 2. […] All of the reaction volume was then transferred to a filter plate and washed with 5% TCA by a Harvester 9600 from TOMTEC (Hamden, Conn.). The amount of ^33P incorporation into pE4y was analyzed by a Packard Top Count Microplate Scintillation Counter (Meriden, Conn.). The data was fitted using Prism software to get an IC50 or Ki.

[2] = molecular target: N-terminally truncated Abl kinase; assay: Abl kinase activity inhibition assay, coupled enzyme; assay type: biochemical; settings: read-out: Abl (wild) Ki; 110 μM ATP, 30° C., 21 nM Abl kinase
Description: Final concentrations of the components of the coupled enzyme system were 2.5 mM phosphoenolpyruvate, 200 μM NADH, […] pyruvate kinase and 20 μg/ml lactate dehydrogenase.
An assay stock buffer solution was prepared containing all of the reagents listed above with the exception of ATP and the test compound of interest. […] Rates of reaction were obtained using a Molecular Devices Spectramax plate reader (Sunnyvale, Calif.) over 10 min at 30° C. The Ki values were determined from the residual rate data as a function of inhibitor concentration using nonlinear regression (Prism 3.0, Graphpad Software, San Diego, Calif.).

[3] = 400 μM ATP, 570 μM Kemptide, 30° C., 40 nM Aurora-2, read-out: Aurora A Ki
[4] = 800 μM ATP, Kemptide, 25° C., read-out: Aurora B Ki

JAK-2, sequence (O60674 whole entry, species assumed): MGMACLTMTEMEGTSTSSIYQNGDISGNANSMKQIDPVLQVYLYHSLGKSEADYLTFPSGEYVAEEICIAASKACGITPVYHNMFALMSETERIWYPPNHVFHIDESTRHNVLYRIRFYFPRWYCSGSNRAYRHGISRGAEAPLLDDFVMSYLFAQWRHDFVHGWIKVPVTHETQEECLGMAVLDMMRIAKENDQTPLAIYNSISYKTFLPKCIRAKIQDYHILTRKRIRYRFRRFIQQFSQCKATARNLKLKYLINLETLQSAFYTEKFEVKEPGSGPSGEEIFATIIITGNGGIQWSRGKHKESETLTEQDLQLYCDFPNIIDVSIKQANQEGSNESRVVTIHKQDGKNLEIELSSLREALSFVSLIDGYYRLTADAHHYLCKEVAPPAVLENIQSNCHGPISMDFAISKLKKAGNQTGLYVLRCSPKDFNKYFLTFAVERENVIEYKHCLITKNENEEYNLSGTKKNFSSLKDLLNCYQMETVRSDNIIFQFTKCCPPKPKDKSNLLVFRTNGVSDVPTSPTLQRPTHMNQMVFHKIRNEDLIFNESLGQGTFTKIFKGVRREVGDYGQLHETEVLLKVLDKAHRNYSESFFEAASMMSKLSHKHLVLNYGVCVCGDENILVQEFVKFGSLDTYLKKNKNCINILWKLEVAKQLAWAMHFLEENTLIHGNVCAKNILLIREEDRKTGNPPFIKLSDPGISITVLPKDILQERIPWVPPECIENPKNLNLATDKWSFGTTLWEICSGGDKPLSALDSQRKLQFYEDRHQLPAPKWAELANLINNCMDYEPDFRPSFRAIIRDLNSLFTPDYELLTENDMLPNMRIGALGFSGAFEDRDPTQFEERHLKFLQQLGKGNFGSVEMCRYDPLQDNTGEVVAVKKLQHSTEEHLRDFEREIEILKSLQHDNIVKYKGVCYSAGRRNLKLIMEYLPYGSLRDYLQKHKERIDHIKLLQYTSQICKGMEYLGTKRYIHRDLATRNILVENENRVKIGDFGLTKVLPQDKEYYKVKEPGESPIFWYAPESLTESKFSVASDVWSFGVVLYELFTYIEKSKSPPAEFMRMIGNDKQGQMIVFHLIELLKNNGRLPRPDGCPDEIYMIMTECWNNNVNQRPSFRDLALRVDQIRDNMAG
Aurora-1 (Aurora B), sequence (Q96GD4 whole entry): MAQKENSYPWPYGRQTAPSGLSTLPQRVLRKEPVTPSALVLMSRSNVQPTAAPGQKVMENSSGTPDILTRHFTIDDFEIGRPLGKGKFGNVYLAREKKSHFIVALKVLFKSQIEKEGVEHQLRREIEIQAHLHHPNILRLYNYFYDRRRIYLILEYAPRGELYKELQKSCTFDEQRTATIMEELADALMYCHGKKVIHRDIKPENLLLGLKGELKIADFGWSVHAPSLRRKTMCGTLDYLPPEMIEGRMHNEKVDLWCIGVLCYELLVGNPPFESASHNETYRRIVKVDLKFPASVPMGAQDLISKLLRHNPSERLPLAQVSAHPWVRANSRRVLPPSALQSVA
N-terminally truncated Abl kinase, sequence (P00519 28-1130): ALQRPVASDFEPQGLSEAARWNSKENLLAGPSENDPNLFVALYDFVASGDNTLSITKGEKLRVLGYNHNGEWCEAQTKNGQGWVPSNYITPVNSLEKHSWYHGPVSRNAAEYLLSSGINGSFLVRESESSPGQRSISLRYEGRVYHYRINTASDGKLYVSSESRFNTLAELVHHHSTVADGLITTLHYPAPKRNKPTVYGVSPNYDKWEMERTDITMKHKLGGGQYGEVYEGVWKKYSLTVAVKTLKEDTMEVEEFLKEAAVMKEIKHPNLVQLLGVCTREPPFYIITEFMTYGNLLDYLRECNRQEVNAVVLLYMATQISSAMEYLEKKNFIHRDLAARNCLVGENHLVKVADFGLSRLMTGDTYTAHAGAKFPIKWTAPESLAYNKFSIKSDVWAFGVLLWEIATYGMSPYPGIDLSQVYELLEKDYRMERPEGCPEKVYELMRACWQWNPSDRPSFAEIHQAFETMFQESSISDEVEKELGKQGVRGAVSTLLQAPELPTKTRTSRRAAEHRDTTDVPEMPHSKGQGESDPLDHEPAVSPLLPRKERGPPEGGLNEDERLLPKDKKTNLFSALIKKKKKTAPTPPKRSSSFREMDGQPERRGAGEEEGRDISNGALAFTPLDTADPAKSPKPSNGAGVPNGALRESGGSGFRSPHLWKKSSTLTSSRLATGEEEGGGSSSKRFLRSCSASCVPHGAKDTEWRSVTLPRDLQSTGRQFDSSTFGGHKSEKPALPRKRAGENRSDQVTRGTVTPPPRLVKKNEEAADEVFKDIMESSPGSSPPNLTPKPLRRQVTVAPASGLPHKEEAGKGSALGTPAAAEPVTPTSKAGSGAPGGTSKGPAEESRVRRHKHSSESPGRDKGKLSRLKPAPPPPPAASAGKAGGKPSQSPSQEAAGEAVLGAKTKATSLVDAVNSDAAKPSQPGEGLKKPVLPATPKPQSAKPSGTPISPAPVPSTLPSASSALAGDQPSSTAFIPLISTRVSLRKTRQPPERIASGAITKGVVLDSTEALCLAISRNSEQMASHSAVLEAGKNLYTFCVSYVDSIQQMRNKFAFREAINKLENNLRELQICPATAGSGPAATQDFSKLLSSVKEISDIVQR

Row | SMILES | Ki (Aurora-2 (Aurora A); [3]) [nM] | Ki (Aurora-1 (Aurora B); [4]) [nM] | Microsomal Stability (% remaining after 30 min.) [1] [%] | Microsomal Stability (% remaining after 60 min.) [1] [%] | Ki (JAK-2) [nM] | Ki (Aurora-2 (Aurora A)) [nM] | Ki (Aurora-1 (Aurora B)) [nM] | Ki (FLT-3; 90 μM ATP, 0.5 mg/ml pE4Y, room temperature, read-out: FLT-3 Ki) [nM] | Ki [2] [nM] | Ki (FLT-3) [nM]
1 | CCc1cc(Nc2cc(N3CCC3)nc(Sc3ccc(NC(=O)c4ccccc4Cl)cc3)n2)n[nH]1 [Compound I-16] |  |  | 91 | 63 | 440 | 0.56 | 7.5 |  |  | 
2 | Cc1cc(Nc2cc(N3CCC3)nc(Sc3ccc(NC(=O)c4cc(F)ccc4F)cc3)n2)[nH]n1 [Compound I-10] | 1.8 | < 25 |  |  |  |  |  |  |  | 
3 | CSc1ccccc1C(=O)Nc1ccc(Sc2nc(Nc3cc(C)[nH]n3)cc(N3CCC3)n2)cc1 [Compound I-23] |  | 6 |  |  |  | 1.4 |  |  |  | 
4 | Cc1cc(Nc2cc(N3CCC3)nc(Sc3ccc(NC(=O)c4ccccc4Cl)nc3)n2)[nH]n1 [Compound I-24] | 1 | 18 |  |  | 660 |  |  |  |  | 700

The next lines start with the values.

Row | Ki (Aurora-2 (Aurora A); [3]) [nM] | Ki (Aurora-1 (Aurora B); [4]) [nM] | Microsomal Stability (% remaining after 30 min.) [1] [%] | Microsomal Stability (% remaining after 60 min.) [1] [%] | Ki (JAK-2) [nM] | Ki (Aurora-2 (Aurora A)) [nM] | Ki (Aurora-1 (Aurora B)) [nM] | Ki (FLT-3; 90 μM ATP, 0.5 mg/ml pE4Y, room temperature, read-out: FLT-3 Ki) [nM] | Ki [2] [nM] | Ki (FLT-3) [nM] | SMILES
5 | 0.6 | 8 | 89 | 58 | 63 |  |  |  |  |  | COc1cccc(C(=O)Nc2ccc(Sc3nc(Nc4cc(C)n[nH]4)cc(N4CCC4)n3)cc2)c1 [Compound I-18]
6 |  | 5.1 | 102 | 69 | 41 |  |  | 250 | 35 |  | Cc1cc(Nc2cc(N3CCC3)nc(Sc3ccc(NC(=O)c4cccc(F)c4F)cc3)n2)[nH]n1 [Compound I-7]
7 |  |  |  | 69 |  | 0.85 | 6.5 |  |  |  | Cc1cc(Nc2cc(N3CCC3)nc(Sc3ccc(NC(=O)c4cccc(Cl)c4Cl)cc3)n2)n[nH]1 [Compound I-9]
